Test results taken from PMC7937321 (Genes and Environment, 2021).

Tests used:
[1] = Cytotoxicity in the TK6 assay (CE, RS, RSG, RTG); settings: human; for viability at 24 h, 173.7 μg/mL: 173.70 μg/mL; for viability at 24 h, 277.9 μg/mL: 277.90 μg/mL; for viability at 4 h, 444.7 μg/mL: dose 444.70 μg/mL
TK6 cells = experiment: Cytotoxicity in the TK6 assay (CE, RS, RSG, RTG); settings: for RS: graph data
[2] = TK6 cells with rat liver S9 mix, CE0 (%), cell viability on Day 0, Short treatment, +S9 mix
[3] = TK6 cells with rat liver S9 mix, CE3 (%), cell viability on Day 3, Short treatment, +S9 mix
[4] = TK6 cells without S9 mix, CE0 (%), cell viability on Day 0, 24 h treatment, -S9 mix
[5] = TK6 cells without S9 mix, CE0 (%), cell viability on Day 0, Short treatment, -S9 mix
[6] = TK6 cells without S9 mix, CE3 (%), cell viability on Day 3, 24 h treatment, -S9 mix
[7] = TK6 cells without S9 mix, CE3 (%), cell viability on Day 3, Short treatment, -S9 mix
[8] = 24 h treatment, -S9 mix, 173.70 μg/mL
[9] = 24 h treatment, -S9 mix, 277.90 μg/mL
[10] = 24 h treatment, -S9 mix, 444.70 μg/mL
[11] = 24 h treatment, -S9 mix, 711.5 μg/mL
[12] = 24 h treatment, -S9 mix, 1138.4 μg/mL
[13] = 24 h treatment, -S9 mix, 1821.4 μg/mL
[14] = Short treatment, +S9 mix, dose 173.7 μg/mL
[15] = Short treatment, +S9 mix, dose 277.9 μg/mL
[16] = Short treatment, +S9 mix, dose 445 μg/mL
[17] = Short treatment, +S9 mix, dose 712 μg/mL
[18] = Short treatment, +S9 mix, dose 1138 μg/mL
[19] = Short treatment, +S9 mix, dose 1821 μg/mL
[20] = Short treatment, -S9 mix, dose 173.70 μg/mL
[21] = Short treatment, -S9 mix, dose 277.90 μg/mL
[22] = Short treatment, -S9 mix, dose 444.70 μg/mL
[23] = Short treatment, -S9 mix, dose 711.5 μg/mL
[24] = Short treatment, -S9 mix, dose 1138.4 μg/mL
[25] = Short treatment, -S9 mix, dose 1821.4 μg/mL

Nc1cc([N+](=O)[O-])ccc1C(=O)O [4-Nitroanthranilic acid]
viability at 4 h, 173.7 μg/mL ([1]; TK6 cells with rat liver S9 mix, CE0 (%), cell viability on Day 0, Short treatment, +S9 mix, dose 173.7 μg/mL): 84.1%
viability at 4 h, 277.9 μg/mL ([1]; TK6 cells with rat liver S9 mix, CE0 (%), cell viability on Day 0, Short treatment, +S9 mix, dose 277.9 μg/mL): 98%
viability at 4 h, 445 μg/mL [1, 2]: 72.7%
viability at 4 h, 712 μg/mL [1, 2]: 79.3%
viability at 4 h, 1138 μg/mL [1, 2]: 108%
viability at 4 h, 1821 μg/mL [1, 2]: 3.3%
viability at 4 h, 173.7 μg/mL ([1]; TK6 cells with rat liver S9 mix, CE3 (%), cell viability on Day 3, Short treatment, +S9 mix, dose 173.7 μg/mL): 70.6%
viability at 4 h, 277.9 μg/mL ([1]; TK6 cells with rat liver S9 mix, CE3 (%), cell viability on Day 3, Short treatment, +S9 mix, dose 277.9 μg/mL): 66.7%
viability at 4 h, 445 μg/mL [1, 3]: 81.6%
viability at 4 h, 712 μg/mL [1, 3]: 98%
viability at 4 h, 1138 μg/mL [1, 3]: 84.1%
viability at 4 h, 1821 μg/mL [1, 3]: 44.6%
viability at 24 h, 173.7 μg/mL [1, 4]: 47.4%
viability at 24 h, 277.9 μg/mL [1, 4]: 23.4%
viability at 24 h, 444.7 μg/mL ([1]; TK6 cells without S9 mix, CE0 (%), cell viability on Day 0, 24 h treatment, -S9 mix, 444.70 μg/mL): 42%
viability at 24 h, 711.5 μg/mL [1, 4]: 42%
viability at 24 h, 1138.4 μg/mL ([1]; TK6 cells without S9 mix, CE0 (%), cell viability on Day 0, 24 h treatment, -S9 mix, 1138.4 μg/mL): 30.4%
viability at 24 h, 1821.4 μg/mL [1, 4]: 24.4%
viability at 4 h, 173.7 μg/mL ([1]; TK6 cells without S9 mix, CE0 (%), cell viability on Day 0, Short treatment, -S9 mix, dose 173.70 μg/mL): 120%
viability at 4 h, 277.9 μg/mL ([1]; TK6 cells without S9 mix, CE0 (%), cell viability on Day 0, Short treatment, -S9 mix, dose 277.90 μg/mL): 77%
viability at 4 h, 444.7 μg/mL [1, 5]: 77%
viability at 4 h, 711.5 μg/mL [1, 5]: 74.8%
viability at 4 h, 1138.4 μg/mL [1, 5]: 46%
viability at 4 h, 1821.4 μg/mL [1, 5]: 29.4%
viability at 24 h, 173.7 μg/mL [1, 6]: 84.1%
viability at 24 h, 277.9 μg/mL [1, 6]: 84.1%
viability at 24 h, 711.5 μg/mL [1, 6]: 68.7%
viability at 24 h, 1821.4 μg/mL [1, 6]: 43.3%
viability at 4 h, 173.7 μg/mL ([1]; TK6 cells without S9 mix, CE3 (%), cell viability on Day 3, Short treatment, -S9 mix, dose 173.70 μg/mL): 89.3%
viability at 4 h, 277.9 μg/mL ([1]; TK6 cells without S9 mix, CE3 (%), cell viability on Day 3, Short treatment, -S9 mix, dose 277.90 μg/mL): 77%
viability at 4 h, 444.7 μg/mL [1, 7]: 105%
viability at 4 h, 711.5 μg/mL [1, 7]: 101%
viability at 4 h, 1138.4 μg/mL [1, 7]: 95%
viability at 4 h, 1821.4 μg/mL [1, 7]: 105%
cytotoxicity (TK6 cells; 1138 μg/mL, short-term without metabolic activation): More than 50%
cytotoxicity (TK6 cells; 1821 μg/mL, long-term treatment): More than 80%
cytotoxicity (TK6 cells; 1821 μg/mL, short-term with metabolic activation): approximately 100%
cytotoxicity (TK6 cells; 1821 μg/mL, short-term without metabolic activation): More than 50%
Adjusted CE0(%) (TK6 cells; [8]): 111.3%
RS0 (%) (TK6 cells; [8]): 133.0%
RSG (TK6 cells; [8]): 1.273
Adjusted CE0(%) (TK6 cells; [9]): 40.4%
RS0 (%) (TK6 cells; [9]): 48.3%
RSG (TK6 cells; [9]): 0.978
Adjusted CE0(%) (TK6 cells; [10]): 71.5%
RS0 (%) (TK6 cells; [10]): 85.4%
RSG (TK6 cells; [10]): 1.146
Adjusted CE0(%) (TK6 cells; [11]): 49.4%
RS0 (%) (TK6 cells; [11]): 59.0%
RSG (TK6 cells; [11]): 1.081
Adjusted CE0(%) (TK6 cells; [12]): 26.6%
RS0 (%) (TK6 cells; [12]): 31.8%
RSG (TK6 cells; [12]): 0.835
Adjusted CE0(%) (TK6 cells; [13]): 14.0%
RS0 (%) (TK6 cells; [13]): 16.7%
RSG (TK6 cells; [13]): 0.892
Adjusted CE0(%) (TK6 cells; [14]): 84.1%
RS0 (%) (TK6 cells; [14]): 71.1%
RSG (TK6 cells; [14]): 1.078
Adjusted CE0(%) (TK6 cells; [15]): 107.8%
RS0 (%) (TK6 cells; [15]): 91.1%
RSG (TK6 cells; [15]): 0.902
Adjusted CE0(%) (TK6 cells; [16]): 58.9%
RS0 (%) (TK6 cells; [16]): 49.8%
RSG (TK6 cells; [16]): 0.653
Adjusted CE0(%) (TK6 cells; [17]): 79.3%
RS0 (%) (TK6 cells; [17]): 67.0%
RSG (TK6 cells; [17]): 0.824
Adjusted CE0(%) (TK6 cells; [18]): 96.3%
RS0 (%) (TK6 cells; [18]): 81.4%
RSG (TK6 cells; [18]): 0.854
Adjusted CE0(%) (TK6 cells; [19]): 3.0%
RS0 (%) (TK6 cells; [19]): 2.6%
RSG (TK6 cells; [19]): 0.036
Adjusted CE0(%) (TK6 cells; [20]): 132.4%
RS0 (%) (TK6 cells; [20]): 186.4%
RSG (TK6 cells; [20]): 1.135
Adjusted CE0(%) (TK6 cells; [21]): 61.6%
RS0 (%) (TK6 cells; [21]): 86.8%
RSG (TK6 cells; [21]): 0.893
Adjusted CE0(%) (TK6 cells; [22]): 84.7%
RS0 (%) (TK6 cells; [22]): 119.3%
RSG (TK6 cells; [22]): 0.880
Adjusted CE0(%) (TK6 cells; [23]): 60.6%
RS0 (%) (TK6 cells; [23]): 85.4%
RSG (TK6 cells; [23]): 0.786
Adjusted CE0(%) (TK6 cells; [24]): 33.1%
RS0 (%) (TK6 cells; [24]): 46.6%
RSG (TK6 cells; [24]): 0.678
Adjusted CE0(%) (TK6 cells; [25]): 22.9%
RS0 (%) (TK6 cells; [25]): 32.3%
RSG (TK6 cells; [25]): 0.302
CE3 (TK6 cells; as fraction in mutation frequency table, 24 h treatment, -S9 mix, 173.70 μg/mL): 0.841
CE3 (TK6 cells; as fraction in mutation frequency table, 24 h treatment, -S9 mix, 277.90 μg/mL): 0.841
CE3 (TK6 cells; as fraction in mutation frequency table, 24 h treatment, -S9 mix, 444.70 μg/mL): 0.793
CE3 (TK6 cells; as fraction in mutation frequency table, 24 h treatment, -S9 mix, 711.5 μg/mL): 0.687
CE3 (TK6 cells; as fraction in mutation frequency table, 24 h treatment, -S9 mix, 1138.4 μg/mL): 0.950
CE3 (TK6 cells; as fraction in mutation frequency table, 24 h treatment, -S9 mix, 1821.4 μg/mL): 0.433
CE3 (TK6 cells; as fraction, mutation frequency table, Short treatment, +S9 mix, dose 173.7 μg/mL): 0.706
CE3 (TK6 cells; as fraction, mutation frequency table, Short treatment, +S9 mix, dose 277.9 μg/mL): 0.667
CE3 (TK6 cells; as fraction, mutation frequency table, Short treatment, +S9 mix, dose 445 μg/mL): 0.816
CE3 (TK6 cells; as fraction, mutation frequency table, Short treatment, +S9 mix, dose 712 μg/mL): 0.980
CE3 (TK6 cells; as fraction, mutation frequency table, Short treatment, +S9 mix, dose 1138 μg/mL): 0.841
CE3 (TK6 cells; as fraction, mutation frequency table, Short treatment, +S9 mix, dose 1821 μg/mL): 0.446
CE3 (TK6 cells; as fraction, mutation frequency table, Short treatment, -S9 mix, dose 173.70 μg/mL): 0.893
CE3 (TK6 cells; as fraction, mutation frequency table, Short treatment, -S9 mix, dose 277.90 μg/mL): 0.770
CE3 (TK6 cells; as fraction, mutation frequency table, Short treatment, -S9 mix, dose 444.70 μg/mL): 1.046
CE3 (TK6 cells; as fraction, mutation frequency table, Short treatment, -S9 mix, dose 711.5 μg/mL): 1.012
CE3 (TK6 cells; as fraction, mutation frequency table, Short treatment, -S9 mix, dose 1138.4 μg/mL): 0.950
CE3 (TK6 cells; as fraction, mutation frequency table, Short treatment, -S9 mix, dose 1821.4 μg/mL): 1.046
RS (TK6 cells; 24 h, -S9 mix, 173.70 μg/mL): 133.0
RS (TK6 cells; 24 h, -S9 mix, 277.90 μg/mL): 48.3
RS (TK6 cells; 24 h, -S9 mix, 444.70 μg/mL): 85.4
RS (TK6 cells; 24 h, -S9 mix, 711.5 μg/mL): 59.0
RS (TK6 cells; 24 h, -S9 mix, 1138.4 μg/mL): 31.8
RS (TK6 cells; 24 h, -S9 mix, 1821.4 μg/mL): 16.7
RS (TK6 cells; [14]): 71.1
RS (TK6 cells; [15]): 91.1
RS (TK6 cells; [16]): 49.8
RS (TK6 cells; [17]): 67.0
RS (TK6 cells; [18]): 81.4
RS (TK6 cells; [19]): 2.6
RS (TK6 cells; [20]): 186.4
RS (TK6 cells; [21]): 86.8
RS (TK6 cells; [22]): 119.3
RS (TK6 cells; [23]): 85.4
RS (TK6 cells; [24]): 46.6
RS (TK6 cells; [25]): 32.3
